Data from patent US20040138278A1, “Use of AT1 receptor antagonists for prevention of subsequent strokes” (Solvay Pharmaceuticals GmbH, priority 2002, published 2004).

Tests used:
[1] = system: hypertensive and nonhypertensive stroke patients; conditions: cited from earlier work
[2] = system: hypertensive patients after cerebral ischemia, transitory ischemic attack or intracerebral hemorrhage; assay: Prospective, randomized clinical study (PROBE design) of eprosartan versus nitrendipine for prevention of subsequent strokes, interim report; type: in vivo, human; conditions: for incidence of subsequent cerebrovascular events / number of subsequent cerebrovascular events: interim report, 179 patients eprosartan group, 158 patients nitrendipine group, average observation period 18.4 / 18.3 months; for number of subsequent cerebrovascular events: start 600 mg eprosartan once daily or 10 mg nitrendipine q.d.
Text: A clinical study is currently being conducted on 1369 patients, investigating the suitability of antihypertensive agents of various pharmacological classes to reduce a patient's risk of suffering a subsequent stroke.
Of the 1369 patients (male/female), 691 patients received the AT1-receptor antagonist eprosartan (as eprosartan mesylate); 678 of the 1369 patients received the calcium antagonist nitrendipine.
The study is being conducted as a prospective, randomized, controlled and multicentric study and corresponds to the PROBE design (=prospective, randomized, open-blinded endpoint). The primary target criterion is the evaluation of the total mortality and the total number of cardiovascular and cerebrovascular events (strokes) in the sense of this invention.
The subsequent efficacy parameter is the change in mental abilities (evaluated on the basis of neurological findings, Barthel index and Rankin scale). In addition, the change in the average blood pressure over a period of time is evaluated in measurements performed on the patients sitting down in the office as well as in ambulatory 24-hour blood pressure measurements.
The study begins within 24 months after the occurrence of cerebral ischemia or an intracerebral hemorrhage in a patient. The patients are observed for up to four years. The essential prerequisite for including a patient in the study is hypertension requiring treatment and the condition following a cerebral ischemia, a transitory ischemic attack or an intracerebral hemorrhage within the last 24 months. Essential exclusion criteria include an occlusion or stenosis of greater than 70% of the internal carotid artery (ICA), manifest cardiac insufficiency (NYHY [sic; NYHA] class III-IV), age of patient greater than 85 years at the time of the cerebrovascular event, anticoagulant therapy for a patient because of cardiac arrhythmia, high-grade aortic or mitral valve stenosis, unstable angina pectoris or a known hypersensitivity to AT1-receptor antagonists or calcium antagonists of the dihyropyridine type or chemically related substances.
After inclusion in the study, the patients begin the randomized treatment phase with eprosartan or nitrendipine. Depending on the blood pressure readings and patient-specific criteria, treatment begins with 600 mg eprosartan once daily or 10 mg nitrendipine q.d. For long-term therapy, a diastolic blood pressure of less than 90 mmHg sitting down and a systolic blood pressure of less than 140 mmHg are the goals. For the 24-hour blood pressure measurements, a daily average of less than or equal to 135/85 mmHg is the goal. If additional antihypertensive therapy is necessary, conventional recognized criteria such as those recommended by the German Hypertension League are followed in the combination therapy. Combination therapy with ACE inhibitors, AT1-receptor antagonists or calcium antagonists should not be used.
Study end points (target criteria) are transmitted immediately to the central study office, where they are treated as open-blind results with respect to the medication and then forwarded to the End Point Committee. The committee performs the evaluation and classification of the findings with regard to a cardiovascular or cerebrovascular end point.
In an interim report on this study, the data on a total of 337 of the participating patients has been evaluated; 179 of these 337 patients received eprosartan (eprosartan group) and 158 of these 337 patients received nitrendipine (nitrendipine group). […]

## CCC[C@H](N[C@@H](C)C(=O)N1[C@H](C(=O)O)C[C@@H]2CCCC[C@@H]21)C(=O)OCC [ACE monotherapy, perindopril]
[1]; hypertensive group
  blood pressure of patients: lowered to a comparable extent
[1]; subgroup of hypertensive patients, versus placebo patient group
  risk of suffering a subsequent stroke: did not differ from the corresponding risk in the placebo patient group

## CCOC(=O)C1=C(C)NC(C)=C(C(=O)OC)C1c1cccc([N+](=O)[O-])c1 (stereo not shown) [nitrendipine]
[2]
  incidence of subsequent cerebrovascular events: 13.9%
  number of subsequent cerebrovascular events: 22

## CCCCc1ncc(/C=C(\Cc2cccs2)C(=O)O)n1Cc1ccc(C(=O)O)cc1.CS(=O)(=O)O [eprosartan, (E)-α-[[2-butyl-1-[(4-carboxyphenyl)methyl]-1H-imidazol-5-yl]-methylene]-2-thiophenepropanoic acid monomethanesulfonate]
[2]
  incidence of subsequent cerebrovascular events: 8.4%
  number of subsequent cerebrovascular events: 15
[2]; monotherapy, conclusion from the interim clinical findings
  reduction in a patient's risk of having a subsequent stroke: significant reduction
